Calls of active or inactive are those of the source.
Assays:
[1] = cytotoxicity toward DRD oncogenic fibroblasts, dose response, cell-based, non-viral oncogenic, luminescence (AID 1934); format: functional; conditions: Homo sapiens
[2] = tested on: Escherichia coli; experiment: microbe, parasite or virus in culture
[3] = tested on: BJ; experiment: cytotoxicity toward BJ-TERT-LT-ST fibroblasts, dose response, cell-based, RAS-independent, luminescence (AID 1935); format: functional; conditions: Homo sapiens;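 note: BJ fibroblasts immortalized with TERT plus LT and ST oncogenes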
[4] = tested on: BJ; experiment: cytotoxicity toward BJ-TERT fibroblasts, dose response, cell-based, RAS-independent, luminescence (AID 1933); format: functional; conditions: Homo sapiens
[5] = Luminescence Cell-Based Dose Retest to Confirm Inhibitors of Cancer Stem Cells. [Related pubchem assays (depositor defined):AID2717, AID2721]; format: functional; conditions: Homo sapiens
[6] = tested on: BJ; experiment: cells; format: functional, cell-based; conditions: Homo sapiens
[7] = tested on: INS1; experiment: protection from cytokine-induced mitochondrial depolarization, dose response, cell-based, INS-1E, JC-1 fluorescence ratio, dry powder (AID 488931); format: functional; conditions: Rattus norvegicus
[8] = biological target: Heat shock protein HSP 90-alpha (Homo sapiens, UniProt P07900); format: functional, organism-based
[9] = cells; format: functional
[10] = tested on: CHO; experiment: cytotoxicity in TLR9-MyD88 CHO cells, dose response, cytotoxicity control for TLR9-MyD88 binding inhibitor project, cell-based, luminescence (AID 588339); format: functional, hamster; conditions: Cricetulus griseus;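 note: CHO cells stably coexpressing TLR9 and MyD88 fusions from primary screen; compound exposure lasted 48 hours before viability readout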
[11] = biological target: Beta Lactamase (Pseudomonas aeruginosa, UniProt Q932Y6); experiment: beta-lactamase reporter inhibitor potency, dose response, artefact control for TLR9-MyD88 binding inhibitor project, BLA reporter cells, FRET fluorescence (AID 588341); format: cell-based;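 note: cell based assay in CHO-K1 cells stably expressing beta-lactamase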
Sequence of Beta Lactamase (Q932Y6 whole entry): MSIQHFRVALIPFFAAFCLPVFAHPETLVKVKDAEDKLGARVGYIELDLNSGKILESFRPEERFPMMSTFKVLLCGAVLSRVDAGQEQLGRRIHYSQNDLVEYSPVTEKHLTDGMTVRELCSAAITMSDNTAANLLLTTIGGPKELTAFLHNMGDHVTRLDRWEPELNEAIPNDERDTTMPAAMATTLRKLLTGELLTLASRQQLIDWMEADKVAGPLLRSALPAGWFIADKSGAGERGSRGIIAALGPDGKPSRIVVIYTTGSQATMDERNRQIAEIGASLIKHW

[12] = tested on: A-375; experiment: MITF: Counter assay: A375 proliferation Measured in Cell-Based System Using Plate Reader - 2084-03_Inhibitor_Dose_DryPowder_Activity. [Related pubchem assays (depositor defined):AID488944]; format: functional; conditions: Homo sapiens
[13] = THP-1 cell cytotoxicity, dose response, cytotoxicity control for non-replicating M. tuberculosis project (AID 489025); format: functional
[14] = control 3'UTR Renilla luciferase suppression, dose response, counter-screen for Shn3 inhibitor project, cell-based, Clone20-Shn3RL, cherry-picked (AID 624133); format: functional
[15] = tested on: A-375; experiment: A375 melanoma cell viability reduction, dose response, counter-screen for MITF modulator project, cherry-pick samples, set 2 (AID 540335); format: functional, cell-based; conditions: Homo sapiens
[16] = tested on: INS1; experiment: beta cell apoptosis inhibitors, cytokine rescue, dose response, luminescence, retest (AID 449756); format: functional, cell-based; conditions: Rattus norvegicus;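 note: cell death triggered by IL-1 beta plus TNF-alpha plus IFN-gamma mixture; protective hits raise ATP signal compared with cytokine alone wells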
[17] = biological target: T1, Microphthalmia-associated transcription factor (Homo sapiens, UniProt O75030); experiment: TRPM1 promoter luciferase signal decrease, dose response, MITF inhibitor project, cell-based, SK-MEL-5, cherry-picked, set 3 (AID 493073); format: functional
T1 sequence (O75030 whole entry): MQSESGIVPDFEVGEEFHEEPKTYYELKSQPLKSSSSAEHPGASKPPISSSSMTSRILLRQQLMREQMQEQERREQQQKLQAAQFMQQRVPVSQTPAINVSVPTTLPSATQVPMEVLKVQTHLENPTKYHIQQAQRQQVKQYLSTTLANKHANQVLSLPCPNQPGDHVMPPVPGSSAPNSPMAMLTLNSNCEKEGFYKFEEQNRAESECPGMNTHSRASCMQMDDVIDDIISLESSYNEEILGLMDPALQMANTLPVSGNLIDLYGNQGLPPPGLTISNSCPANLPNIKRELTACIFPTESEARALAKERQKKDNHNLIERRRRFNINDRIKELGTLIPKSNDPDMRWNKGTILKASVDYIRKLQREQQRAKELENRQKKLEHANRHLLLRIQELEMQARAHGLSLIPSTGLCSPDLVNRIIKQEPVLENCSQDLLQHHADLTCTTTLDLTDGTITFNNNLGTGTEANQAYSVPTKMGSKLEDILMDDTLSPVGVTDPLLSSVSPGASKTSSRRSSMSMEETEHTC

[18] = biological target: T2, Heat shock factor protein 1 (Mus musculus, UniProt P38532); experiment: HSF1 potentiators in luciferase reporter cells, confirmation, cell-based, NIH3T3, luminescence, dose retest (AID 435004); format: functional;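 note: stress induced by proteasome inhibitor MG132 added 30 min after compound; luciferase reporter driven by HSF1 response element in NIH3T3 cells; actives raise luminescence as potentiators of the MG132 stress response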
T2 sequence (P38532 whole entry): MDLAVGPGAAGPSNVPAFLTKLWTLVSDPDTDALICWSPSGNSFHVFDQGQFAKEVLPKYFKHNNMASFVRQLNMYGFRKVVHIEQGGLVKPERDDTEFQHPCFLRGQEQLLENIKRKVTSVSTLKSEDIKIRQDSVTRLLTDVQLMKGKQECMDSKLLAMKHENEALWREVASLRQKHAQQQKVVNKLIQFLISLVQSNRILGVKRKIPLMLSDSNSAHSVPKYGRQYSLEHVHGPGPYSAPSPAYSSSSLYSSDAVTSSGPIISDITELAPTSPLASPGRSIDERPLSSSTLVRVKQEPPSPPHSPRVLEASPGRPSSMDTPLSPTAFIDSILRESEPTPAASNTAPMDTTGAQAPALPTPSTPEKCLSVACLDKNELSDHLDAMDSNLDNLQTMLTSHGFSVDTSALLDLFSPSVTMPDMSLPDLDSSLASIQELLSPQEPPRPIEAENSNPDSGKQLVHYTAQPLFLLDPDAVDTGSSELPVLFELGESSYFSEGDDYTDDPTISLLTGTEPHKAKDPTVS

[19] = Shn3 3'UTR reporter inhibitors, dose response, cell-based, Clone20 osteoblasts, firefly luciferase, cherry-picked (AID 624132); format: functional;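 note: firefly luciferase luminescence from reporter carrying the Shn3 3'UTR in osteoblasts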
[20] = HepG2 cell cytotoxicity, dose response, cytotoxicity control for Shn3 inhibitor project, CellTiter-Glo, cherry-picked (AID 624134); format: functional, cell-based
[21] = tested on: HEK293; experiment: cells; format: functional, cell-based; conditions: Homo sapiens
[22] = biological target: Nuclear receptor subfamily 0 group B member 1 (Homo sapiens, UniProt P51843); experiment: Luminescence-based cell-based high throughput dose response assay for inhibitors of the orphan nuclear receptor subfamily 0, group B, member 1 (DAX1; NR0B1). [Related pubchem assays (depositor defined):AID504766, AID504790]; format: functional
Sequence of Nuclear receptor subfamily 0 group B member 1 (P51843 whole entry): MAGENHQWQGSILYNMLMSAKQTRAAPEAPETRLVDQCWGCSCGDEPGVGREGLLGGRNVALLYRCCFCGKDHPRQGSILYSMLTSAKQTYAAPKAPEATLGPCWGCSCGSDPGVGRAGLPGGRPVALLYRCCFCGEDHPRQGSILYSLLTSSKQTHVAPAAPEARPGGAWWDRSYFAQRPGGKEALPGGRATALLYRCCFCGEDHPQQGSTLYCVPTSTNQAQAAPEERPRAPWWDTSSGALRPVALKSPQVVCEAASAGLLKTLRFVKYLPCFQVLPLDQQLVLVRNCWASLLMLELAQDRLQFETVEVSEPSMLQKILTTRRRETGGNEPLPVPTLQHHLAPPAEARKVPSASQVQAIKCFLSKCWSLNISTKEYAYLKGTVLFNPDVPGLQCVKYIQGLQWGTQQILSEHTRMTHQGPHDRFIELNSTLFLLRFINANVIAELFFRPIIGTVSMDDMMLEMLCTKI

[23] = biological target: ATP-dependent molecular chaperone HSP82 (Candida albicans (strain WO-1) (Yeast), UniProt C4YTQ8); experiment: loss of DOC-induced GRE-beta-galactosidase reporter signal, dose response, Hsp90 inhibitor project, S. cerevisiae, luminescence (AID 2400); format: functional, cell-based;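 note: beta-galactosidase luminescence from glucocorticoid response element reporter as proxy for Hsp90 function; inhibitor potency where signal loss means Hsp90 inhibition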
Sequence of ATP-dependent molecular chaperone HSP82 (C4YTQ8 whole entry): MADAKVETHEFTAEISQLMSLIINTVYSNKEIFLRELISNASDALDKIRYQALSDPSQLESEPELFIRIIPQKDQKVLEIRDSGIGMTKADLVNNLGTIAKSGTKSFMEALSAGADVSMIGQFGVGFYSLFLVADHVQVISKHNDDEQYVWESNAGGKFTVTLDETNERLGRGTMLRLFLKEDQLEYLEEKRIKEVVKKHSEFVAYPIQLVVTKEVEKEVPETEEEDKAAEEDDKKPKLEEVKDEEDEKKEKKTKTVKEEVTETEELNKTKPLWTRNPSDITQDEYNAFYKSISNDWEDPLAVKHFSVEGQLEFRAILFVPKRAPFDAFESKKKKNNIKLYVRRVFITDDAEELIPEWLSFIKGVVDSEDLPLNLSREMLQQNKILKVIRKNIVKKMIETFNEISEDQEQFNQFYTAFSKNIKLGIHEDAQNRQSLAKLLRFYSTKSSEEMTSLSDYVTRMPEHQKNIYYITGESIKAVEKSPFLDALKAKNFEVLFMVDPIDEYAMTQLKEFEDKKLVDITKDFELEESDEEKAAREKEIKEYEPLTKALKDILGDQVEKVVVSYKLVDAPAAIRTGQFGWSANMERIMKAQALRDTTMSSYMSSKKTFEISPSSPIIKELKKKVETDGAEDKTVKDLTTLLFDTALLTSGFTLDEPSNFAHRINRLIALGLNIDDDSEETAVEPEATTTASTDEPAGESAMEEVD

[24] = cells; format: functional, cell-based
[25] = biological target: Serine/threonine-protein phosphatase (Candida dubliniensis (strain CD36 / CBS 7987 / NCPF 3949 / NRRLY-17841) (Yeast), UniProt B9W6M3); experiment: calcineurin pathway inhibitors in yeast reporter, dose response, S. cerevisiae, CDRE-lacZ, luminescence, secondary (AID 2388); format: functional, cell-based;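 note: yeast reporter cells carrying a calcineurin-responsive lacZ construct stimulated with calcium chloride; luminescent beta-galactosidase reporter signal in whole cells rather than isolated phosphatase activity; potency for inhibition where a drop in reporter signal means calcineurin blockade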
Sequence of Serine/threonine-protein phosphatase (B9W6M3 whole entry): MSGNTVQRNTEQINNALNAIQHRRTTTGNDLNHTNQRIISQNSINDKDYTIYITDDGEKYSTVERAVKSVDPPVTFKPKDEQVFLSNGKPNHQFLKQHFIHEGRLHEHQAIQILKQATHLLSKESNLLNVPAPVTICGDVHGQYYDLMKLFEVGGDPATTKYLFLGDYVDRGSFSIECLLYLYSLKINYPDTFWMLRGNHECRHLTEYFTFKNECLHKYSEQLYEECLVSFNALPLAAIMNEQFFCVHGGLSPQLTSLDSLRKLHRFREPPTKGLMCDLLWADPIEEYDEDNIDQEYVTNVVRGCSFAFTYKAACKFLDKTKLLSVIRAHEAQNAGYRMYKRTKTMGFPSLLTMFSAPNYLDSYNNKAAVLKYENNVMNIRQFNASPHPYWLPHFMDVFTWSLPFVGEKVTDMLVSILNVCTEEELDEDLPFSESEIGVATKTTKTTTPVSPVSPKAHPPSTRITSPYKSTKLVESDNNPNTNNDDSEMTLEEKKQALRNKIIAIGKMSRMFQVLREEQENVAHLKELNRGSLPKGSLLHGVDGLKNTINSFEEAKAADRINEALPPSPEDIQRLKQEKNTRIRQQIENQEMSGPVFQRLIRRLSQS

[26] = Luminescence Cell-Based Dose Response HTS to Identify Inhibitors of 5'UTR Stem-Loop Driven Prion Protein mRNA Translation in H4 Neuroglioblastoma Cells. [Related pubchem assays: 1827 (Project Summary), 1813 (Primary HTS)]; format: functional
[27] = tested on: Streptococcus; experiment: Group A Streptococcus viability loss, dose response, counter-screen for streptokinase expression inhibitor project, luminescence, BacTiterGlo (AID 1915); format: functional, organism-based;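 note: potency for reduction of bacterial viability or growth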
[28] = inhibitors of firefly luciferase expression or activity, dose response, H4 neuroglioma cells, luminescence (AID 1990); format: functional, cell-based
[29] = cells; format: functional, cell-based; remark: listed apart in the source
[30] = tested on: HEK293; experiment: inhibitors of LMP1-driven NF-kB reporter, dose response, cell-based, HEK293, luciferase, cherry-pick (AID 588343); format: functional; conditions: Homo sapiens
[31] = inhibitors of SNCA 5'UTR-driven reporter translation, confirmation, H4 neuroglioma cells, luminescence (AID 1988); format: functional, cell-based
[32] = tested on: Streptococcus sp. 'group A'; experiment: growth inhibition of control SK(-) GAS strain, dose response, counter-screen for streptokinase expression inhibitor project, luminescence, kanamycin, BacTiterGlo, confirmation (AID 1900); format: functional, organism-based
[33] = biological target: T3, Rac GTPase-activating protein 1 (Homo sapiens, UniProt Q9H0H5); experiment: MgcRacGAP GTPase-activating activity inhibitors, confirmation, biochemical, ADP Hunter fluorescence, primary and confirmatory (AID 624330); format: functional
T3 sequence (Q9H0H5 whole entry): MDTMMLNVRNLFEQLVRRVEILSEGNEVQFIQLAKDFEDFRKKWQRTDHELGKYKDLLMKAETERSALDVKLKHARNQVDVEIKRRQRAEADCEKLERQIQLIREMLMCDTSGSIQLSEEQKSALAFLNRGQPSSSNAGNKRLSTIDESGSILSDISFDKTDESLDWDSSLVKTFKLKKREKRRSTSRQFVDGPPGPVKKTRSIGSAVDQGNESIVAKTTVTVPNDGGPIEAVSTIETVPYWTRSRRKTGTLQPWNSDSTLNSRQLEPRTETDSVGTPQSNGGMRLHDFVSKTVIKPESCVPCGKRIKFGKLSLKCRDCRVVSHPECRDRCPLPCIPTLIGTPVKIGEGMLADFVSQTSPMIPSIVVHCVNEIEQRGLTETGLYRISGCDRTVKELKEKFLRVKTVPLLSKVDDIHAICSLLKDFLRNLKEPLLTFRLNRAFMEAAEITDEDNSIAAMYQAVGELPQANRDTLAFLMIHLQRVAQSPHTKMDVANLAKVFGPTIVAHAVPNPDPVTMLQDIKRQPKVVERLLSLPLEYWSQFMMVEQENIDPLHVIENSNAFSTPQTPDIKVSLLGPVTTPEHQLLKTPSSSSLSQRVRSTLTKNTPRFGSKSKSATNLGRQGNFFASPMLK

[34] = biological target: T4, Streptokinase A (Streptococcus pyogenes serotype M1, UniProt P10520); experiment: S. pyogenes streptokinase expression inhibitors, potency, dose response, plasminogen activation absorbance, OD405 (AID 1914); format: functional, Streptococcus pyogenes M1 GAS;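 note: secreted streptokinase activity via plasminogen activation per viability signal from cell pellet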
T4 sequence (P10520 whole entry): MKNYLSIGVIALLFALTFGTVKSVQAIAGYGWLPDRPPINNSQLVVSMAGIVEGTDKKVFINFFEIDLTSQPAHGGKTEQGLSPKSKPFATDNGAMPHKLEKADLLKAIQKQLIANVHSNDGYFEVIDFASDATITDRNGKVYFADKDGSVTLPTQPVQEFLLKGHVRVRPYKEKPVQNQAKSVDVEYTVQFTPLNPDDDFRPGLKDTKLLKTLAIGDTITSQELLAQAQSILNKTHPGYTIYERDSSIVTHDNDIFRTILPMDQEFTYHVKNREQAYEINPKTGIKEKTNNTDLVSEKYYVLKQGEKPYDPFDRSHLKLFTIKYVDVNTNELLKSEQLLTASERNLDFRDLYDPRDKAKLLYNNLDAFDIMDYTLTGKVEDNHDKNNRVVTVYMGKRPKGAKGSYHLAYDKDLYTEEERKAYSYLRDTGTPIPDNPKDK

[35] = NIH-3T3 fibroblast cytotoxicity, dose response, cytotoxicity control, cell-based, fluorescence, Alamar Blue, secondary assay (AID 2327); format: functional;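 note: NIH-3T3 mouse fibroblasts cultured with fluconazole at 8 µg/mL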
[36] = C. albicans growth with fluconazole, confirmation, fluorescence, retest (AID 2467); format: functional, cell-based
[37] = Fluorescence polarization-based biochemical high throughput dose response assay for activators of the Protein Kinase A-R2B (PKA-R2B) complex. [Related pubchem assays (depositor defined):AID504700, AID504704, AID504796, AID504797]
[38] = Fluorescence polarization-based biochemical high throughput dose response assay for activators of the Protein Kinase A-R1A (PKA-R1A) complex. [Related pubchem assays (depositor defined):AID504704, AID504707, AID504799, AID504800]

COCCNC(=O)c1cnc2ccc(S(=O)(=O)N3CCc4ccccc43)cc2c1O
EC50 [1]: 11.5 µM (active) | AC50 [2]: 87.7 µM (active) | EC50 [3]: > 150 µM (not active) | EC50 [4]: > 150 µM (not active) | AC50 [5]: 2.32 µM (active) | EC50 [6]: 7.76 µM (active)

C[C@@H]1CN([C@@H](C)CO)C(=O)c2cccc(NC(=O)Nc3cccc4ccccc34)c2O[C@H]1CN(C)S(C)(=O)=O
AC50 [7]: > 195 µM (inactive)

CCOC(=O)COc1ccc2ccccc2c1/C=C/[N+](=O)[O-]
AC50 [8]: 4.28 µM (active) | IC50 [9]: 2.81 µM (active) | IC50 [10]: 2.72 µM (active) | IC50 [11]: 30.5 µM (inactive) | AC50 [12]: > 35 µM (active) | CC50 [13]: 19.1 µM (active) | AC50 [14]: 12.9 µM (active) | AC50 [15]: > 35 µM (active) | AC50 [16]: > 60 µM (inactive) | AC50 [17]: 8.17 µM (active) | EC50 [18]: 3.33 µM (inconclusive) | AC50 [19]: 5.2 µM (active) | AC50 [20]: 20.9 µM (active)

Cc1cnc(C(=O)OCC(=O)NCCCc2ccccc2)cn1
IC50 [21]: > 67.5 µM (inactive) | IC50 [22]: > 67.5 µM (inactive)

O=C(N/N=C/c1sc2ccccc2c1O)c1cccc2ccccc12
EC50 [23]: 9.14 µM (active) | AC50 [8]: 14 µM (active) | EC50 [24]: > 350 µM (not active) | EC50 [25]: > 180 µM (inactive) | EC50 [26]: 10.4 µM (active) | EC50 [27]: 12.4 µM (active) | EC50 [28]: 10.6 µM (active) | EC50 [29]: 12.5 µM (active) | AC50 [30]: 5.14 µM (active) | EC50 [31]: 9 µM (active) | EC50 [32]: 3.44 µM (active) | AC50 [16]: 1.1 µM (active) | IC50 [33]: 52.9 µM (active) | EC50 [34]: > 150 µM (not active) | EC50 [35]: > 160 µM (inactive) | EC50 [36]: 0.738 µM (active)

CCCC(=O)Nc1ncnc2c1ncn2[C@@H]1O[C@@H]2COP(=O)(O)O[C@H]2[C@H]1OC(=O)CCC
EC50 [37]: 5.38 µM (active) | EC50 [38]: 4.48 µM (active)

From ChEMBL document CHEMBL1201862, “PubChem BioAssay data set” (2004)
